How the values were obtained:
[1] = Liver microsomal metabolic stability test (human); assay type: in vitro ADME; conditions: NADPH, 37° C.; for half-life at 1 µM / microsomal CLint at 1 µM: pH 7.4; for half-life at 1 µM: read-out: Human hepatic microsomal metabolic half-life; for microsomal CLint at 1 µM: read-out: Intrinsic clearance of human hepatic microsomes in body
Description: (§1) 1) Preparation of stock and working solutions of the compound: An appropriate amount of the compound was weighed and dissolved in DMSO to give a 10 mM stock solution, and the stock solution was further diluted with ACN to give a 100 µM working solution.
Each positive control standard was dissolved separately with DMSO to obtain a 10 mM stock solution and further diluted with ACN to obtain a 100 µM working solution.
(§2) 73.21 g of dipotassium hydrogen phosphate trihydrate and 10.78 g of potassium dihydrogen phosphate were dissolved in 4000 mL of ultrapure water. The pH of the solution was adjusted to 7.40 ± 0.10 with 10% phosphoric acid or 1 M potassium hydroxide and the final concentration was 100 mM.
Human liver microsomes (20 mg/mL) were diluted with the phosphate buffer solution to obtain 0.56 mg/mL of a liver microsomal working solution.
(§3) NADPH was weighed and dissolved in the phosphate buffer solution to obtain a 10 mM solution.
1) Preparation of Blank: 54 µL of human liver microsomal working solution was transferred to a blank sample plate, then added with 6 µL of NADPH working solution, and finally added with 180 µL of ACN solution containing 200 ng/mL of tolbutamide and labetalol (internal standard) to precipitate the protein.
445 µL of human liver microsomal working solution (MWS) was added to the cofactor-free incubation sample plate, pre-incubated at 37° C. for 10 min, and then fully mixed after the addition of 5 µL of working solution of positive control or the compound to be tested.
50 µL of phosphate buffer solution was added to the above incubation sample plate, fully mixed and incubated at 37° C. for 60 min.
After the incubation is complete, 60 µL of incubation solution was taken into a pellet plate, and then added with 180 µL of ACN solution containing 200 ng/mL of tolbutamide and labetalol (internal standard) to precipitate the protein.
(§4) 445 µL of human/rat liver microsomal working solution (MWS) was added to the incubation sample plate, pre-incubated at 37° C. for 10 min, and then fully mixed after the addition of 5 µL of working solution of positive control or the compound to be tested.
(§5) 54 µL of the above intermediate working solution was transferred to the zero-time sample plate (T0), then added with 180 µL of ACN solution containing 200 ng/mL tolubutamide and labetalol (internal standard) to precipitate the protein, and finally added with 6 µL of NADPH working solution.
(§6) 44 µL of NADPH working solution was added to 396 µL of microsomal working solution containing positive control or the compound to be tested (remaining solution after the operation of steps (1) and (2)) and incubated at 37° C. At the time points of 5, 15, 30, 45, and 60 min, 60 uL of incubation solution was taken and added to 180 µL of ACN solution containing 200 ng/mL of tolubutamide and labetalol (internal standard) to precipitate the protein.
(§7) Centrifuged collected supernatants were analyzed with LC-MS/MS after appropriate dilution.
(§8) The peak area ratio of the analyte to the internal standard was used to calculate the relative percentage content of the compound after incubation and to perform exponential function fitting. The calculation formula was as follows: […]
(§9) wherein k was the rate constant obtained by linear regression taking the concentration logarithm as the ordinate and the incubation time as the absciss.
(§10) wherein CLint was the Intrinsic clearance.

[2] = Liver microsomal metabolic stability test (rat); assay type: in vitro ADME; conditions: NADPH, 37° C.
Description: as §1, §2, §3, §4, §5, §6, §7, §8, §9, §10

[3] = human liver microsomes, 0-60 min

Row | half-life at 1 µM [1, 3] [h] | microsomal CLint at 1 µM ([1]; human liver microsomes) [µL/min/mg] | half-life at 1 µM ([2]; pH 7.4, rat liver microsomes, 0-60 min, read-out: Rat hepatic microsomal metabolic half-life) [h] | microsomal CLint at 1 µM ([2]; pH 7.4, rat liver microsomes, read-out: Intrinsic clearance of rat hepatic microsomes in body) [µL/min/mg] | SMILES | Intrinsic clearance of human hepatic microsomes in body [1] [µL/min/mg] | Human hepatic microsomal metabolic half-life [1, 3] [h] | Intrinsic clearance of rat hepatic microsomes in body [2] [µL/min/mg] | Rat hepatic microsomal metabolic half-life ([2]; rat liver microsomes, 0-60 min) [h]
1 | – | – | – | – | Nc1nccc(Sc2cnc(N3CCC4(CC3)Cc3ncccc3[C@H]4N)n3ccnc23)c1Cl [Compound 1] | 26 | 0.9 | 19 | 1.17
2 | 1.2 | 19 | 2.03 | 11.4 | [2H][C@@]1(N)c2cccnc2CC12CCN(c1ncc(Sc3ccnc(N)c3Cl)c3nccn13)CC2 [Compound 10] | – | – | – | –
3 | 1.28 | 18 | – | – | [2H]C1([2H])c2ncccc2[C@@]([2H])(N)C12CCN(c1ncc(Sc3ccnc(N)c3Cl)c3nccn13)CC2 [Compound 12] | – | – | – | –
